How the values were obtained:
[1] = test system: dextran sodium sulfate-induced colitis; assay: Remission/relapse model of dextran sodium sulfate-induced colitis in mice, therapeutic; type: in vivo, mouse; conditions: compound F 1 mg/kg, SASP 100 mg/kg, oral once a day for 50 days
From the text: Next, therapeutic effect of compound F on colitis was studied in a chronic model. Female BALB/c mice, 6 weeks old, body weight about 20 g (Japan SLC) were purchased, acclimated for 1 week and used for the study. The mice were divided into a colitis induction group and a normal group. The colitis induction group was allowed to freely drink a 2.6 w/v % DSS (MP Biochemicals, M.W. 36,000-50,000, Lot No. 4556J) solution to induce colitis. On day 8 when the stool score (defined in Example 23) of the colitis induction group reached about 4.5, the mice were subdivided into a control group, a compound F 1 mg/kg administration group and a salazosulfapyridine (SIGMA, Lot No. 085K1930, hereinafter to be abbreviated as SASP) 100 mg/kg administration group. Then the mice were allowed to freely drink distilled water instead of DSS solution for 9 days (remission period). After the grouping, the stool score was evaluated every 3-4 days. […]
Compound F at a dose of 1 mg/kg and SASP at a dose of 100 mg/kg were orally administered once a day, daily, for 50 days from the initial remission period (day 8 from the start of 2.6 w/v % DSS drinking) to the fifth remission period (day 57 from the start of 2.6 w/v % DSS drinking). […] The remission ratio (%) was calculated as a ratio of mice in remission in each group. […]

[2] = In vitro metabolic stability: NADPH-independent β oxidation reaction in rat liver mitochondria fraction; type: in vitro ADME; conditions: 37° C., 30 min, tested as isomer mixtures, average±SD of 3 experiments
Procedure: A mixture of the compound F and compound J of the present invention described in Table 1 (F:J=52:41, synthesized in Example 14), and a mixture of compounds wherein the tetrazole groups at C-1 of compound F and compound J are respectively substituted by carboxylic acid (referred to as carboxylate form, F:J=54:34, synthesized in Example 15) were tested.
First, a mitochondria fraction was prepared from the rat liver according to the following Reference A. Then, in reference to the method of […] et al. described in the following References B and C, an NADPH-independent β oxidation reaction was studied. The reaction was carried out at 37° C. for 30 min, and stopped with a methanol solution containing a suitable internal standard substance. Each compound was quantified by the internal standard method using a high performance liquid chromatography mass spectrometry apparatus (LC-MS/MS). The compound residual ratio after metabolic reaction of compounds F, J and each carboxylate form thereof in rat mitochondria fraction is shown in the following Table 2 in average±standard deviation of 3 experiments.

[3] = test system: dextran sodium sulfate-induced colitis; assay: Dextran sodium sulfate-induced colitis model in mice (BALB/c), prophylactic; type: in vivo, mouse; conditions: 2.2 w/v % DSS
From the text: The prophylactic effect of compound F on ulcerative colitis was examined in dextran sodium sulfate-induced colitis model.
Female BALB/c mice (6 weeks old, Japan SLC) were purchased, acclimated for 1 week and used for the study. Except the normal group, the mice were allowed to freely drink a dextran sodium sulfate (to be abbreviated as DSS, MP Biochemicals, M.W. 36,000-50,000, Lot No. 3439J) solution prepared to 2.2 w/v % for 9 days to induce colitis. Compound F was orally administered at doses of 0.1, 0.3 and 1 mg/kg, once a day, daily, from the start day of DSS drinking (day 0) to one day before autopsy (day 9). To the control group was orally administered a solvent (1 vol % ethanol solution) at 10 mL/kg in the same manner.
Thus, to determine the level of diarrhea, the stool was graded into 6 levels; normal (score 0), spherical stool being not less than 50% (score 1), banana-shaped stool being less than 50% (score 2), banana-shaped stool being not less than 50% (score 3), muddy stool (score 4), watery stool (score 6) (stool consistency score). The fecal occult blood (including proctorrhagia) was graded using fecal occult blood slide 5 Shionogi II (Shionogi & Co., Ltd.) into 6 levels; negative (no change of the slide color from yellow, score 0), weakly positive (slightly blue green, score 1), positive (blue green, score 2), moderately positive (clear blue green, score 3), strongly positive (instantaneous color change to dark blue with color developer, score 4), and proctorrhagia (score 5). The sum of the stool consistency score and occult blood score was defined as the stool score. Eight to 10 animals were used for each group, and the results were expressed as average±standard deviation. On the day of autopsy, after laparotomy under ether anesthesia and blood collection, the mice were exsanguinated to death. Then the large intestines were dissected from just below the cecum to the anus and the length thereof was measured.

[4] = test system: dextran sodium sulfate-induced colitis; assay: Dextran sodium sulfate-induced colitis model in mice (C57BL/6); type: in vivo, mouse; conditions: C57BL/6 mice, DSS, oral 0.3 and 1 mg/kg once a day
Procedure: Whether or not an IP agonist has an effect on such colitis model was determined using a selective IP agonist, BPS.
Female C57BL/6 mice (6 weeks old, Japan SLC) were purchased, acclimated for 1 week and used for the study. Except the normal group, the mice were allowed to freely drink a 3 or 2 w/v % DSS (MP Biochemicals, Lot No. 5653H and 5464H, respectively) solution for 1 week to induce colitis. BPS at a dose of 0.3 mg/kg and compound F at doses of 0.3 and 1 mg/kg were orally administered once a day, daily, from the start day of DSS drinking (day 0) to one day before autopsy (day 9). To the control group was orally administered a solvent (1 vol % ethanol solution) at 10 mL/kg in the same manner. The consistency of the stool was graded from score 0 to 4, with normal (0), partly loose stool (1), loose stool (2) and diarrhea (4). The blood feces was also graded from score 0 to 4, with normal (0), partly blood feces (1), blood feces (2) and blood feces plus proctorrhagia (4). The sum of both grades was defined as the stool score (maximum 8). Furthermore, the length of the large intestine was measured in the same manner as in Example 23. Six to 10 animals were used for each group, and the results are shown in average±standard deviation.

Residual ratio of parent compound after β-oxidation reaction [2]: 91.6 ± 6.8%
SMILES: Cc1cccc([C@@H](C)[C@H](O)/C=C/[C@@H]2[C@@H]3[C@H](C[C@H]2O)O/C(=C\CCCc2nnn[nH]2)C3(F)F)c1 [Compound F, 4-[(Z)-(1S,5R,6R,7R)-6-[(1E,3R,4R)-3-hydroxy-4-(m-tolyl)-1-pentenyl]-7-hydroxy-2-oxa-4,4-difluoro-bicyclo[3.3.0]octan-3-ylidene]-1-(tetrazol-5-yl)butane]
Effect on stool score in remission and relapse periods [1]: decreased the stool score early in the remission period, and suppressed an increase in the score in the relapse period
Suppression of the increase in the stool score ([3]; oral 0.1 mg/kg once a day): suppressive tendency
Effect on shortening of the large intestine ([3]; oral 0.1, 0.3 and 1 mg/kg once a day): dose-dependent suppressive effect
Suppression of the increase in the stool score ([3]; oral 0.3 and 1 mg/kg once a day): significant
Effect on the onset of colitis (stool score, colon shortening) [4]: superior prophylactic effect
